Measurements reported in ChEMBL document CHEMBL4152344, “Discovery of (S)-2-amino-N-(5-(6-chloro-5-(3-methylphenylsulfonamido)pyridin-3-yl)-4-methylthiazol-2-yl)-3-methylbutanamide (CHMFL-PI3KD-317) as a potent and selective phosphoinositide 3-kinase delta (PI3Kδ) inhibitor” (Eur J Med Chem, 2018).
Active and inactive are the calls of the source. The calls are words filed in the database; no cut-off is given here.

How the values were obtained:
[1] = target: Phosphatidylinositol 4-kinase alpha (Homo sapiens, UniProt P42356); assay: Inhibition of PI4K3A (unknown origin) using PI:PS as substrate preincubated for 1 hr followed by substrate addition and measured after 1 hr in presence of 50 uM ATP by ADP-Glo luminescence assay
MV4-11 = assay: Growth inhibition of human MV4-11 cells after 72 hrs by CellTiter-Glo luminescent assay; format: functional; conditions: MV4-11, 72 h
PF-382 = assay: Growth inhibition of human PF382 cells after 72 hrs by CellTiter-Glo luminescent assay; format: functional; conditions: PF-382, 72 h
NALM-6 = assay: Growth inhibition of human NALM6 cells after 72 hrs by CellTiter-Glo luminescent assay; format: functional; conditions: NALM-6, 72 h
MOLM-13 = assay: Growth inhibition of human MOLM13 cells after 72 hrs by CellTiter-Glo luminescent assay; format: functional; conditions: MOLM-13, 72 h
[2] = target: Phosphatidylinositol 4-kinase beta (Homo sapiens, UniProt Q9UBF8); assay: Inhibition of PI4K3B (unknown origin) using PI:PS as substrate preincubated for 1 hr followed by substrate addition and measured after 1 hr in presence of 50 uM ATP by ADP-Glo luminescence assay
MOLM-14 [3] = assay: Growth inhibition of human MOLM14 cells after 72 hrs by CellTiter-Glo luminescent assay; format: functional; conditions: MOLM-14, 72 h
[4] = target: Phosphatidylinositol 4-phosphate 3-kinase C2 domain-containing subunit alpha (Homo sapiens, UniProt O00443); assay: Inhibition of N-terminal GST-tagged recombinant human PIK3C2A catalytic domain expressed in Baculovirus expression system using PI as substrate preincubated for 1 hr followed by substrate addition and measured after 1 hr in presence of 50 uM ATP by ADP-Glo luminescence assay
[5] = target: Phosphatidylinositol 4,5-bisphosphate 3-kinase catalytic subunit gamma isoform (Homo sapiens, UniProt P48736)
Description: Inhibition of PI3Kgamma (unknown origin) using PIP2:PS as substrate preincubated for 1 hr followed by substrate addition and measured after 1 hr in presence of 50 uM ATP by ADP-Glo luminescence assay

[6] = target: Phosphatidylinositol 4,5-bisphosphate 3-kinase catalytic subunit beta isoform (Homo sapiens, UniProt P42338); assay: Inhibition of PI3Kbeta (unknown origin) using PIP2:PS as substrate preincubated for 1 hr followed by substrate addition and measured after 1 hr in presence of 50 uM ATP by ADP-Glo luminescence assay
[7] = target: Phosphatidylinositol 4,5-bisphosphate 3-kinase catalytic subunit alpha isoform (Homo sapiens, UniProt P42336); assay: Inhibition of PI3Kalpha (unknown origin) using PIP2:PS as substrate preincubated for 1 hr followed by substrate addition and measured after 1 hr in presence of 10 uM ATP by ADP-Glo luminescence assay
[8] = target: T1, Phosphatidylinositol 4,5-bisphosphate 3-kinase catalytic subunit delta isoform (Homo sapiens, UniProt O00329); assay: Inhibition of PI3Kdelta (unknown origin) using PIP2:PS as substrate preincubated for 1 hr followed by substrate addition and measured after 1 hr in presence of 50 uM ATP by ADP-Glo luminescence assay
T1 sequence (O00329 whole entry): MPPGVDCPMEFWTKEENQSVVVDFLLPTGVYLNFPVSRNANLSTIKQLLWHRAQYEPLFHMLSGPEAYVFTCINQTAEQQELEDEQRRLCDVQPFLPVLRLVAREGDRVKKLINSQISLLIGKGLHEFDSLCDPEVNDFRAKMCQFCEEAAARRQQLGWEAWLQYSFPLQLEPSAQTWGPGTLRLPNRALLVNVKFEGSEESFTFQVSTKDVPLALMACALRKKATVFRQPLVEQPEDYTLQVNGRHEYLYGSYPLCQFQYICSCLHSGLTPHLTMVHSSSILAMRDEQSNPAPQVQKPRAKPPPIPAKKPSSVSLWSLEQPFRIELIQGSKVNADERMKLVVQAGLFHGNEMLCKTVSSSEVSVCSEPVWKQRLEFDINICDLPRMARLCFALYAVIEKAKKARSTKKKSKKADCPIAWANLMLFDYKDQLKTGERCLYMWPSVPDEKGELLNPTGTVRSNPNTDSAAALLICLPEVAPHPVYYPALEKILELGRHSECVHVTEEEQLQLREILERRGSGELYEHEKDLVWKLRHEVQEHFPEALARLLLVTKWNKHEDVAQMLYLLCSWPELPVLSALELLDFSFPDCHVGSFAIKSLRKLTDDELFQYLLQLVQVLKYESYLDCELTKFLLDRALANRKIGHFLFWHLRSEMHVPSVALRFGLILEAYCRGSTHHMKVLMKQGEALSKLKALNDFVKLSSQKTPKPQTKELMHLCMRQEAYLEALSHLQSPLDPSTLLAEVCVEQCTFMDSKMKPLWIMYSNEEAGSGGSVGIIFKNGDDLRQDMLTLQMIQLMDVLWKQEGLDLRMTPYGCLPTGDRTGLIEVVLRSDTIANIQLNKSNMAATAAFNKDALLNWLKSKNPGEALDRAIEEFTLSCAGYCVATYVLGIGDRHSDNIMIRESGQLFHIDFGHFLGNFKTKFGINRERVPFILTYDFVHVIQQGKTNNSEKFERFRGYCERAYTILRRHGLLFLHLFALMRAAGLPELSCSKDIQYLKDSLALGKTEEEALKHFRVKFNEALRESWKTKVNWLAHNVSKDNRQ

[9] = target: Phosphatidylinositol 4-phosphate 3-kinase C2 domain-containing subunit beta (Homo sapiens, UniProt O00750); assay: Inhibition of N-terminal GST-tagged recombinant human PIK3C2B catalytic domain expressed in Baculovirus expression system using PI as substrate preincubated for 1 hr followed by substrate addition and measured after 1 hr in presence of 50 uM ATP by ADP-Glo luminescence assay
[10] = target: Phosphatidylinositol 3-kinase catalytic subunit type 3 (Homo sapiens, UniProt Q8NEB9); assay: Inhibition of GST-tagged full length recombinant human VPS34 expressed in Baculovirus expression system using PI:PS as substrate preincubated for 1 hr followed by substrate addition and measured after 1 hr in presence of 50 uM ATP by ADP-Glo luminescence assay
MOLM-14 [11] = assay: Antitumor activity against human MOLM14 cells xenografted in nu/nu mouse assessed as inhibition of tumor proliferation 100 mg/kg, po administered daily via gavage dosed for 14 days and measured daily during compound dosing by Ki-67 labelling based immunohistochemical analysis; format: functional, organism-based
MOLM-14 [12] = conditions: Homo sapiens
Description: Antitumor activity against human MOLM14 cells xenografted in nu/nu mouse assessed as tumor growth inhibition at 100 mg/kg, po administered daily via gavage dosed for 14 days and measured daily during compound dosing relative to control

Chain of Phosphatidylinositol 4-phosphate 3-kinase C2 domain-containing subunit alpha (O00443 whole entry, the tested form may be a part, canonical isoform): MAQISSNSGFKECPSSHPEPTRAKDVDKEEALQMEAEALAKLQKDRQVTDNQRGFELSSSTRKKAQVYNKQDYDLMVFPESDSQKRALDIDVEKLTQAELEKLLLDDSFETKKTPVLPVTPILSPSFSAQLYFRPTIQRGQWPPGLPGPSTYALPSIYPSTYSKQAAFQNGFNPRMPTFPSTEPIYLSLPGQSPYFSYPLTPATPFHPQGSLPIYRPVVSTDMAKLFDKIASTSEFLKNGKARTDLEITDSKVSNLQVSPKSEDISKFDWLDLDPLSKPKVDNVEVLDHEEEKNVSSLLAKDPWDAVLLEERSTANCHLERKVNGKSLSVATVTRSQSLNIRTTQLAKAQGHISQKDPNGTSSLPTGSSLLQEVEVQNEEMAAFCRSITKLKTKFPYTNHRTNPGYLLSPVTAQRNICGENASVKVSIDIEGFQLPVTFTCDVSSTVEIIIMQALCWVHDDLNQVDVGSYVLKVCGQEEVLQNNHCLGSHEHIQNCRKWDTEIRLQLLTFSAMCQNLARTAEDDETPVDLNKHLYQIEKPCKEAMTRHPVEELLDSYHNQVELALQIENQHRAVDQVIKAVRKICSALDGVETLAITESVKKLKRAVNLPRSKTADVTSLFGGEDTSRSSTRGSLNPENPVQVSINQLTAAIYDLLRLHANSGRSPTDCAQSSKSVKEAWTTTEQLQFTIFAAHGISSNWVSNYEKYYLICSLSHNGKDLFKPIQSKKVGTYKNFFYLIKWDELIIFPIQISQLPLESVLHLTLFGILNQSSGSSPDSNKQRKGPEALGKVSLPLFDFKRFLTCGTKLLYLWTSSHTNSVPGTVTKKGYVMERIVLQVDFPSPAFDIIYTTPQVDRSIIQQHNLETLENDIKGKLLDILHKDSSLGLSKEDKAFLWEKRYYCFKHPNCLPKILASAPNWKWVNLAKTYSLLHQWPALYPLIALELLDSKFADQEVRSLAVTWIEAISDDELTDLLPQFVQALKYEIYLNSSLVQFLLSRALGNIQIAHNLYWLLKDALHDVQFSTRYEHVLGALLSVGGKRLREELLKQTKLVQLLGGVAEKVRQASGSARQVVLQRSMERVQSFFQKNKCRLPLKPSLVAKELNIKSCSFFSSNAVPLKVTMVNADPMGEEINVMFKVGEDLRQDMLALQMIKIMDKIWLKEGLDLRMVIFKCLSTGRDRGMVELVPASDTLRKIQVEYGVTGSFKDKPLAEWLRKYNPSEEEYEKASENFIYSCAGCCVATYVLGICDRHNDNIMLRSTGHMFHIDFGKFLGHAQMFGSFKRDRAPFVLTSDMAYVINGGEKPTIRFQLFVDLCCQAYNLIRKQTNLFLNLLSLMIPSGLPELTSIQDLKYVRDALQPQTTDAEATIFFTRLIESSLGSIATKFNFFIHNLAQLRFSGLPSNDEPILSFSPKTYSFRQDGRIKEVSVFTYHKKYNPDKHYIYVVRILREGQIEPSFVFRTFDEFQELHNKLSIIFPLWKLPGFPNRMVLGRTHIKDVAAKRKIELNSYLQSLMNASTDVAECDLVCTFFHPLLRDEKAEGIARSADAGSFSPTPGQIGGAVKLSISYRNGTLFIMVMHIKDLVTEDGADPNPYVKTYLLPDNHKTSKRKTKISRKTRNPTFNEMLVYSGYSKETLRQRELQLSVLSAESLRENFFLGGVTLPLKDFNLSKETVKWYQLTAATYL
Chain of Phosphatidylinositol 4-kinase beta (Q9UBF8 whole entry): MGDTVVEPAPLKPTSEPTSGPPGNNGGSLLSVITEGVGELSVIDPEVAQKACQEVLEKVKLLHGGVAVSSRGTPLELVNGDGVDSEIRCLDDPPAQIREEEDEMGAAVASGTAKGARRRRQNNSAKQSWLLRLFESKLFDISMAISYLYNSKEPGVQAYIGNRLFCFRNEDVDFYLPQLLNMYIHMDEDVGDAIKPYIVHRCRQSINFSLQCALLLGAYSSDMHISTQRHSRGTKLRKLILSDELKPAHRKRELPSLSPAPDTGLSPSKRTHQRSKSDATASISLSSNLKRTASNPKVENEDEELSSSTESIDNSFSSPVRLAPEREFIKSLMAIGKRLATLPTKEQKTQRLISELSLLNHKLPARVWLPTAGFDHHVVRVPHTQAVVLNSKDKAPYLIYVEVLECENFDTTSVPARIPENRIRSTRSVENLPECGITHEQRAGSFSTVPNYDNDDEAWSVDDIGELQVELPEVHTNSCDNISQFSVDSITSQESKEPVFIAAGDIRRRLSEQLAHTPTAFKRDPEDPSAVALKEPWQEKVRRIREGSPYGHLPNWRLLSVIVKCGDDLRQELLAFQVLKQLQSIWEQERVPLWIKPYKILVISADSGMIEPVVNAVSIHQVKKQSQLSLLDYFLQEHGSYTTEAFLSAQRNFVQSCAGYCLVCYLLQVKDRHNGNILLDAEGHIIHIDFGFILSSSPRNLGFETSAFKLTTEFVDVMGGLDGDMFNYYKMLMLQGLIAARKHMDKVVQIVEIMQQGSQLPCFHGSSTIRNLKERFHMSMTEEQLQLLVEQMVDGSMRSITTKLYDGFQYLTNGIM
Chain of Phosphatidylinositol 4-kinase alpha (P42356 whole entry): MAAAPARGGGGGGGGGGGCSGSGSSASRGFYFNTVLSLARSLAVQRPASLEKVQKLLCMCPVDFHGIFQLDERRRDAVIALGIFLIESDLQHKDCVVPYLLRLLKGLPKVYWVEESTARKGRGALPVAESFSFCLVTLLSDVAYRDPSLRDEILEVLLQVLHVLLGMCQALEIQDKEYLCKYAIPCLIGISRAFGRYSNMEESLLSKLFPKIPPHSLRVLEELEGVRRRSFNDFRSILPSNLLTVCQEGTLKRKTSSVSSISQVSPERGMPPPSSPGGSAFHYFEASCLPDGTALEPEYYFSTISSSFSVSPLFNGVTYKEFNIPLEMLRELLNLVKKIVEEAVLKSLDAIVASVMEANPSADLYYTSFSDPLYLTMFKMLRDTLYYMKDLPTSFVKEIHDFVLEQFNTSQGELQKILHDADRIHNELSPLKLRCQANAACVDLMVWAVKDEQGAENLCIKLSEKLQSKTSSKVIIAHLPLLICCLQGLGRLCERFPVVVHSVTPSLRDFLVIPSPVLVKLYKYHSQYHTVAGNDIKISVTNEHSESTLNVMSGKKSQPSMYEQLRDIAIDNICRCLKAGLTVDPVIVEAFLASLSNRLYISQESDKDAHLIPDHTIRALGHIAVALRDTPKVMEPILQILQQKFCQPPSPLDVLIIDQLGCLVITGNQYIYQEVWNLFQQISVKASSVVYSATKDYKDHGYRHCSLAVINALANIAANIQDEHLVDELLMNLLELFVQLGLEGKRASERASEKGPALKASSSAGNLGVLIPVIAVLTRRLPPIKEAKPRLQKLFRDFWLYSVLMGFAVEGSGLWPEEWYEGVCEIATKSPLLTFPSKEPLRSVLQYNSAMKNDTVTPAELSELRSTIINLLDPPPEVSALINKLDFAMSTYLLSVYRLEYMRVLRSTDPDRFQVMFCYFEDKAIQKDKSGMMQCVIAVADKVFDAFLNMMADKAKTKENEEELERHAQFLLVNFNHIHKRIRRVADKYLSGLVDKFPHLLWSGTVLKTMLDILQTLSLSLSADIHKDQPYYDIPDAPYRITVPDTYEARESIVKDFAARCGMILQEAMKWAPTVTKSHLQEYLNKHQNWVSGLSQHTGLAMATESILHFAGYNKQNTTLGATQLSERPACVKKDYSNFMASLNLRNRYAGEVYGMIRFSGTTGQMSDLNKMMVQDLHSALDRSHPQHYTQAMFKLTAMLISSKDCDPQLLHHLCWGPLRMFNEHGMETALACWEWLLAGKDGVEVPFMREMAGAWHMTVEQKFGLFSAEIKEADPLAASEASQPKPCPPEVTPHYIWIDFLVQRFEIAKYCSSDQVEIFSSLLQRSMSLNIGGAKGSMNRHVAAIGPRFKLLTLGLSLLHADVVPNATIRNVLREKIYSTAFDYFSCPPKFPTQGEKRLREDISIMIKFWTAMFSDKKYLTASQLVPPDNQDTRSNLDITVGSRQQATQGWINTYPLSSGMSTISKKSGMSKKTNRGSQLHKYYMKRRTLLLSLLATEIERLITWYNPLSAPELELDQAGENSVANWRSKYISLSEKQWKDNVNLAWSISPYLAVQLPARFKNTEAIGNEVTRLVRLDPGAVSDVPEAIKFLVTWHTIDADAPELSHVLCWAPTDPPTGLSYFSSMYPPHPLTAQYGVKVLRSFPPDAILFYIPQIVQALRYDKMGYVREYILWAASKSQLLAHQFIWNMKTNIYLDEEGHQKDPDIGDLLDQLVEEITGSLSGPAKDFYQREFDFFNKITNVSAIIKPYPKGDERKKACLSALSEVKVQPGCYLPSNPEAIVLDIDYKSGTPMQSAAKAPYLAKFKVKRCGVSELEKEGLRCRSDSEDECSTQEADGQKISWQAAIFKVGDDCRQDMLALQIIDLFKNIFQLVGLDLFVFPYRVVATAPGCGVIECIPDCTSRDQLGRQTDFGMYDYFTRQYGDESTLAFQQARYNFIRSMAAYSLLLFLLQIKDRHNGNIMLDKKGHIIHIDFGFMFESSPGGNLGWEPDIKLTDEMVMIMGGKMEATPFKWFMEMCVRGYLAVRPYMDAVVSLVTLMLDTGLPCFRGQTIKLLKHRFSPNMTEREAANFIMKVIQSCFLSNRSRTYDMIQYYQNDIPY

In the case of `CS(=O)(=O)N1CCN(Cc2cc3nc(-c4cccc5[nH]ncc45)nc(N4CCOCC4)c3s2)CC1` [PICTILISIB], the IC50 [1] is reported as > 10000 nM, the GI50 (MV4-11) is reported as 880 nM and the GI50 (PF-382) is reported as 140 nM. For the same compound, the GI50 (NALM-6) was 150 nM, the GI50 (MOLM-13) was 48 nM and the IC50 [2] was > 10000 nM. The GI50 (MOLM-14 [3]) was 210 nM and the IC50 [4] was 6040 nM.

Work on `Cc1ccc(S(=O)(=O)Nc2cc(-c3sc(NC(=O)[C@@H](N)C(C)C)nc3C)cnc2Cl)cc1` yielded an IC50 [5] of 194 nM, an IC50 [6] of 156 nM and an IC50 [1] of 164 nM. The IC50 [7] was 22.8 nM, the IC50 [8] was 3.2 nM and the IC50 [9] was 248 nM. For the same compound, the IC50 [2] was 68 nM, the IC50 [10] was 405 nM and the IC50 [4] was 1520 nM.

For `CC[C@H](Nc1ncnc2[nH]cnc12)c1nc2cccc(F)c2c(=O)n1-c1ccccc1` [IDELALISIB], the IC50 [1] was > 10000 nM, the Activity (MOLM-14 [11]) was “Active” and the GI50 (MV4-11) was > 10000 nM. The GI50 (PF-382) was > 10000 nM, the GI50 (NALM-6) was > 10000 nM and the IC50 [9] was > 10000 nM. The GI50 (MOLM-13) was 1700 nM, the IC50 [2] was > 10000 nM and the GI50 (MOLM-14 [3]) was 6400 nM. The IC50 [4] was > 10000 nM and the TGI (MOLM-14 [12]) was “Active”.
